Laboratory results from patent US11345694B2, “Antibacterial compounds” (DISCUVA LTD., priority 2017, dated 2022).
In brackets after ≈: the same amount, converted by molar mass.

Legend:
[1] = tested on: E. coli NCTC 13441 (UPEC); experiment: MIC broth microdilution; format: cell-based, Escherichia coli; settings: for MIC: Escherichia coli, NCTC13441
Outline: (§1)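 Following CLSI standards, susceptibility is measured in cation-adjusted Müller-Hinton broth at 37° C without added CO2 for 20-24 hours. Test concentrations run 0.39-200 μM final in doubling steps, DMSO capped at 2%. MIC: lowest concentration without bacterial growth.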

[2] = tested on: Staphylococcus aureus ATCC 35556 (SA); experiment: MIC broth microdilution; format: cell-based; settings: for MIC: ATCC35556
Outline: as §1

[3] = tested on: Salmonella typhimurium XNAA5 (St); experiment: MIC broth microdilution; format: cell-based; settings: for MIC: Salmonella enterica
Outline: as §1

[4] = tested on: Escherichia coli K12 (EC); experiment: MIC broth microdilution; format: cell-based
Outline: as §1

[5] = tested on: Pseudomonas aeruginosa ATCC 33359 (PA); experiment: MIC broth microdilution; format: cell-based; settings: for MIC: ATCC33359
Outline: as §1

[6] = tested on: Acinetobacter baumannii ATCC 17978 (AB); experiment: MIC broth microdilution; format: cell-based; settings: for MIC: ATCC17978
Outline: as §1

[7] = tested on: Klebsiella pneumoniae ATCC 10031 (KP2); experiment: MIC broth microdilution; format: cell-based; settings: for MIC: ATCC10031
Outline: (§2)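 Planktonic MIC determination: compound tested two-fold from 200 down to 0.39 μM final with DMSO capped at 2% final, cation-adjusted Müller-Hinton broth, 37° C for 20-24 hours. Endpoint is the lowest concentration inhibiting growth.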

[8] = tested on: Enterobacter cloacae DSM 30054 (Ed); experiment: MIC broth microdilution; format: cell-based; settings: for MIC: DSM30054
Outline: as §2

[9] = tested on: Serratia marcescens SL1344 (Sm); experiment: MIC broth microdilution; format: cell-based
Outline: as §1

[10] = tested on: K. pneumoniae H154600588 (KP8); experiment: MIC broth microdilution; format: cell-based, Klebsiella pneumoniae; settings: for MIC: Klebsiella pneumoniae
Outline: as §2

[11] = tested on: K. pneumoniae NCTC 13438 (KP1); experiment: MIC broth microdilution; format: cell-based, Klebsiella pneumoniae; settings: for MIC: Klebsiella pneumoniae, NCTC13438
Outline: as §2

[12] = tested on: K. pneumoniae H154680676 (KP5); experiment: MIC broth microdilution; format: cell-based, Klebsiella pneumoniae; settings: for MIC: Klebsiella pneumoniae
Outline: as §2

[13] = tested on: K. pneumoniae ATCC 700603 (KP3); experiment: MIC broth microdilution; format: cell-based, Klebsiella pneumoniae; settings: for MIC: Klebsiella pneumoniae, ATCC700603
Outline: as §2

[14] = tested on: K. pneumoniae H154300688 (KP9); experiment: MIC broth microdilution; format: cell-based, Klebsiella pneumoniae; settings: for MIC: Klebsiella pneumoniae
Outline: as §2

[15] = tested on: K. pneumoniae H154640784 (KP7); experiment: MIC broth microdilution; format: cell-based, Klebsiella pneumoniae; settings: for MIC: Klebsiella pneumoniae
Outline: as §2

[16] = tested on: K. pneumoniae H151440671 (KP10); experiment: MIC broth microdilution; format: cell-based, Klebsiella pneumoniae; settings: for MIC: Klebsiella pneumoniae
Outline: as §2

[17] = tested on: K. pneumoniae H154020667 (KP6); experiment: MIC broth microdilution; format: cell-based, Klebsiella pneumoniae; settings: for MIC: Klebsiella pneumoniae
Outline: as §2

[18] = tested on: human hepatocarcinoma cell line ATCC HB-8065 (HepG2); experiment: Human cell viability (CellTiter-Glo); format: cell-based; settings: Homo sapiens; HepG2 cells, 24 h incubation, CellTiter-Glo luminescence, 0.2-100 μM; read-out: IC50 values against the HepG2 cell line
Outline: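 Cytotoxicity was read as CellTiter-Glo luminescence after 24 h compound exposure at 37° C., 5% CO2. Final concentrations spanned 0.2-100 μM in two-fold steps, in 1% FBS MEM with 1% DMSO, on cells plated a day earlier at 20,000/well. IC50 came from 4-parameter logistic regression.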

[19] = tested on: Klebsiella pneumoniae ATCC 51504 (KP4); experiment: MIC broth microdilution; format: cell-based; settings: ATCC51504
Outline: as §1

With C[C@H]1c2cccc(O)c2C(=O)C2=C(O)[C@]3(O)C(=O)C(C(N)=O)=C(O)[C@@H](N(C)C)[C@@H]3[C@@H](O)[C@@H]21 [DOX] the “MIC UPEC” value [1] was “C (a MIC of from 10 to 100 is assigned the letter C)”, the “MIC SA” value [2] was “A (an MIC (μM) of less or equal to 1 is assigned the letter A)” and the “MIC St” value [3] was “B (a MIC of from 1 to 10 is assigned the letter B)”. The “MIC EC” value [4] was “B (a MIC of from 1 to 10 is assigned the letter B)”, the “MIC PA” value [5] was “C (a MIC of from 10 to 100 is assigned the letter C)” and the “MIC AB” value [6] was “A (an MIC (μM) of less or equal to 1 is assigned the letter A)”. For the same compound, the “MIC KP2” value [7] was “A (an MIC (μM) of less or equal to 1 is assigned the letter A)”, the “MIC Ecl” value [8] was “B (a MIC of from 1 to 10 is assigned the letter B)” and the “MIC Sm” value [9] was “B (a MIC of from 1 to 10 is assigned the letter B)”. For the same compound, the “MIC KP8” value [10] was “C (a MIC of from 10 to 100 is assigned the letter C)”, the “MIC KP1” value [11] was “C (a MIC of from 10 to 100 is assigned the letter C)” and the “MIC KP5” value [12] was “C (a MIC of from 10 to 100 is assigned the letter C)”. For the same compound, the “MIC KP3” value [13] was “C (a MIC of from 10 to 100 is assigned the letter C)”, the “MIC KP9” value [14] was “C (a MIC of from 10 to 100 is assigned the letter C)” and the “MIC KP7” value [15] was “C (a MIC of from 10 to 100 is assigned the letter C)”. For the same compound, the “MIC KP10” value [16] was “B (a MIC of from 1 to 10 is assigned the letter B)” and the “MIC KP6” value [17] was “C (a MIC of from 10 to 100 is assigned the letter C)”.
Cc1cc(-c2nc(N)[nH]c2-c2ccc(Cl)cc2)ccn1 [Example 4, 5-(4-Chlorophenyl)-4-(2-methylpyridin-4-yl)-1H-imidazol-2-amine] was tested, and the IC50 [18] was over 100 µM, the MIC [1] was 1 to 10 µM (≈ 0.285 to 2.85 µg/mL) and the MIC [2] was over 100 µM. The MIC [3] was 1 to 10 µM (≈ 0.285 to 2.85 µg/mL), the MIC [4] was at most 1 µM and the MIC [5] was over 100 µM. For the same compound, the MIC [6] was over 100 µM, the MIC [7] was at most 1 µM and the MIC [8] was 1 to 10 µM (≈ 0.285 to 2.85 µg/mL). For the same compound, the MIC [9] was 10 to 100 µM (≈ 2.85 to 28.5 µg/mL) and the MIC [11] was 10 to 100 µM (≈ 2.85 to 28.5 µg/mL).
For COc1ccc(-c2[nH]c(N)nc2-c2ccnc(C)c2)cc1 [Example 21, 5-(4-Methoxyphenyl)-4-(2-methylpyridin-4-yl)-1H-imidazol-2-amine], the IC50 [18] was over 100 µM, the MIC [1] was 1 to 10 µM (≈ 0.28 to 2.8 µg/mL) and the MIC [2] was over 100 µM. The MIC [3] was over 100 µM, the MIC [4] was 1 to 10 µM (≈ 0.28 to 2.8 µg/mL) and the MIC [5] was over 100 µM. For the same compound, the MIC [6] was over 100 µM, the MIC [7] was at most 1 µM and the MIC [8] was over 100 µM. It also gave an MIC [9] of over 100 µM and an MIC [11] of 10 to 100 µM (≈ 2.8 to 28 µg/mL).
Work on Cc1cc(-c2[nH]c(N)nc2-c2ccc3c(c2)N(C2CC2)CCO3)ccn1 [Example 65, 4-(4-Cyclopropyl-3,4-dihydro-2H-benzo[b][1,4]oxazin-6-yl)-5-(2-methylpyridin-4-yl)-1H-imidazol-2-amine] yielded an IC50 [18] of over 100 µM, an MIC [1] of 1 to 10 µM (≈ 0.347 to 3.47 µg/mL) and an MIC [2] of over 100 µM. It also gave an MIC [4] of at most 1 µM, an MIC [5] of over 100 µM and an MIC [6] of over 100 µM. For the same compound, the MIC [7] was at most 1 µM, the MIC [19] was at most 1 µM and the MIC [10] was 1 to 10 µM (≈ 0.347 to 3.47 µg/mL). It also gave an MIC [11] of 1 to 10 µM (≈ 0.347 to 3.47 µg/mL), an MIC [12] of at most 1 µM and an MIC [13] of 1 to 10 µM (≈ 0.347 to 3.47 µg/mL). The MIC [14] was at most 1 µM, the MIC [15] was 1 to 10 µM (≈ 0.347 to 3.47 µg/mL) and the MIC [16] was at most 1 µM. It also gave an MIC [17] of at most 1 µM.
Compound Cc1cc(-c2[nH]c(N)nc2-c2cc3c(cc2F)OCCN3)ccn1 [Example 52, 4-(7-Fluoro-3,4-dihydro-2H-benzo[b][1,4]oxazin-6-yl)-5-(2-methylpyridin-4-yl)-1H-imidazol-2-amine] has an IC50 [18] of over 100 µM, an MIC [1] of at most 1 µM and an MIC [2] of over 100 µM. It also gave an MIC [4] of at most 1 µM, an MIC [5] of over 100 µM and an MIC [6] of over 100 µM. It also gave an MIC [7] of at most 1 µM, an MIC [19] of at most 1 µM and an MIC [10] of 1 to 10 µM (≈ 0.325 to 3.25 µg/mL). The MIC [11] was 1 to 10 µM (≈ 0.325 to 3.25 µg/mL), the MIC [12] was at most 1 µM and the MIC [13] was 1 to 10 µM (≈ 0.325 to 3.25 µg/mL). It also gave an MIC [14] of 1 to 10 µM (≈ 0.325 to 3.25 µg/mL), an MIC [15] of 1 to 10 µM (≈ 0.325 to 3.25 µg/mL) and an MIC [16] of at most 1 µM. It also gave an MIC [17] of at most 1 µM.
